We go through three compounds from article PMC8838850, “Synthesis, Antimicrobial, Anti-Virulence and Anticancer Evaluation of New 5(4H)-Oxazolone-Based Sulfonamides” (Molecules, 2022).

For data set [1], the system named is Staphylococcus aureus ATCC 6538. The data set is described as follows: MIC by agar dilution. Type of data set: cell-based. The conditions noted are these: 20 h; for MIC: ATCC6538, 37 °C, read-out: Minimum inhibitory concentration (MIC). As to the method: (§1) The MICs of the synthesized compound were determined by agar dilution method according to the Clinical Laboratory and Standards Institute Guidelines (CLSI, 2015). Briefly, the tested strains were incubated overnight in tryptic soy broth (TSB) (Oxoid, United Kingdom) and then diluted in Muller–Hinton (MH) broth (Oxoid, United Kingdom) to turbidity approximating to the equivalent of 0.5 McFarland standard. The suspensions were further diluted with sterile saline (1:10) and standardized inoculums (approximately 10^4 CFU per spot) were spotted on the surfaces of MH agar (Oxoid, United Kingdom) plates containing different concentrations of tested compounds and a control plate. The MICs were the lowest concentrations that inhibit growth on the plates after incubation at 37 °C for 20 h.

Data set [2] concerns Salmonella typhimurium ATCC 14028. Put plainly: MIC by agar dilution. Type of data set: cell-based. The conditions noted are these: 37 °C, 20 h; for MIC: Salmonella enterica, read-out: Minimum inhibitory concentration (MIC). The method, then:
as §1
(Agar dilution tests growth on a series of plates holding different concentrations.)

Data set [3] deals with Klebsiella pneumoniae ATCC 27736. Put plainly: MIC by agar dilution. Type of data set: cell-based. The conditions noted are these: 20 h; for MIC: ATCC27736, 37 °C, read-out: Minimum inhibitory concentration (MIC). The method, then: as §1
For data set [4], the system named is Staphylococcus epidermidis ATCC 12228. The data set is described as follows: MIC by agar dilution. The data set is classed as cell-based. The note with it: 20 h; for MIC: ATCC12228, 37 °C, read-out: Minimum inhibitory concentration (MIC). The method, then: as §1
The test system of data set [5] is Micrococcus spp. ATCC 10240. Put plainly: MIC by agar dilution. Type of data set: cell-based. The note with it: 20 h; for MIC: ATCC10240, 37 °C, read-out: Minimum inhibitory concentration (MIC). The method, then:
as §1

Data set [6] deals with Escherichia coli ATCC 10536. The data set is described as follows: MIC by agar dilution. The data set is classed as cell-based. The conditions noted are these: 20 h; for MIC: ATCC10536, 37 °C, read-out: Minimum inhibitory concentration (MIC). The method, then: as §1
The subject of data set [7] is Aspergillus niger ATCC 16404. Put plainly: MIC by agar dilution (antifungal). Type of data set: cell-based. As to the method: as §1
The subject of data set [8] is Candida albicans ATCC 10231. The data set is described as follows: MIC by agar dilution (antifungal). The data set is classed as cell-based. As to the method:
as §1

The test system of data set [9] is Pseudomonas aeruginosae ATCC 47085. Put plainly: MIC by agar dilution. Type of data set: cell-based, Pseudomonas aeruginosa. The conditions noted are these: 20 h; for MIC: ATCC47085, 37 °C, read-out: Minimum inhibitory concentration (MIC). The method, then: as §1
Another data set deals with Panc-1. The data set is described as follows: SRB cellular proliferation assay. Type of data set: cell-based, human. The conditions noted are these: Panc-1 cells, mean ± SD (n = 3). The method, then: (§2) The pancreatic human cancer cell lines BxPC-3 and Panc-1, the human hepatocellular carcinoma (HepG-2), and the normal immortalized pancreatic cell line HPDE, that were used in this study, were obtained from the American Type Culture Collection (Rockville, USA). Cell lines were cultured and treated with the tested compounds or dimethyl sulfoxide (DMSO) as previously described. Cells were cultivated in DMEM medium (Invitrogen, Carlsbad, CA, USA), supplemented with streptomycin, penicillin and fetal bovine serum (FCS) (Invitrogen, Carlsbad, CA, USA). The sulforhodamine B (SRB) assay was employed to assess the anti-proliferative effects of tested compounds on cancer cells. Cell lines were incubated and regularly treated with DMSO or increasing doses of tested compounds for 48 h. The cells were fixed with 10% trichloroacetic acid and stained with SRB fluorescent dye for 30 min. Then, the bounded SRB dye to cellular proteins was dissolved in 10 mM Tris base after washing excess dye with 1% acetic acid. The absorbance was measured at 510 nm in a reader (Biotek, Winooski, VT, USA).

The next data set deals with BxPC-3. Put plainly: SRB cellular proliferation assay. The data set is classed as cell-based, human. The conditions noted are these: BxPC-3 cells, mean ± SD (n = 3). The method, then: as §2
For another data set, the system named is HepG-2. Put plainly: SRB cellular proliferation assay. Type of data set: cell-based, human. The note with it: mean ± SD (n = 3). The method, then:
as §2

The subject of another data set is S. aureus ATCC 6538. Put plainly: Biofilm formation assay (crystal violet, light microscopy). Type of data set: cell-based, Staphylococcus aureus. The conditions noted are these: sub-MIC, light microscopy image. The method, then: (§3) Bacterial virulence is regulated via a quorum sensing (QS) system in an inducer/receptor manner. Diminishing bacterial virulence is an advantageous strategy to decrease the development of bacterial resistance. In this direction, anti-virulence and anti-QS activities have been explored in several studies as reviewed. The ability of P. aeruginosa or S. aureus to form biofilms was assayed in the absence or presence of tested compounds at sub-MIC. […] The experiment was conducted in triplicate and a one-way ANOVA test was employed to test the statistical significance using Graphpad Prism 8 software. The results were significant statistically where p values < 0.05. Moreover, microscopic visualization of biofilm under the effect of tested compounds was also performed by light microscopy. Representative images for the inhibitory effects on S. aureus and P. aeruginosa biofilm formation are shown (Figure 3C,D). The microscopic images show a marked reduction in both the thickness of and surface area covered by the biofilms in presence of the tested compound.
(§4) In order to evaluate the ability of the tested compounds to inhibit the biofilm formation, a strong biofilm forming P. aeruginosa ATCC 47,085 [47, 66] and S. aureus ATCC 6538 [67] strains were used. As described earlier, suspensions of tested strains were prepared from overnight cultures in TSB and their optical densities were adjusted to OD600 of 0.4 (1×10^8 CFU/mL). Aliquots of 10 μL of the suspensions were added to 1 mL amounts of fresh TSB with or without sub-MICs of tested compounds. […] The non-adherent cells were removed, the wells were washed with sterile PBS, and left to dry. The attached biofilm forming cells were fixed with methanol for 25 min and stained with 1% crystal violet for 30 min. The excess dye was washed out and the crystal violet staining adhered biofilm forming cells were eluted by glacial acetic acid (33%). The experiment was conducted in triplicate and the absorbance was measured at 590 nm. The absorbances of tested strains treated with different compounds were expressed as mean ± standard error of percentage change from untreated tested strains control. The percentages of biofilm inhibition were calculated employing the following formula: (absorbance of control—absorbance in presence of tested compounds)/absorbance of control.

The test system of data set [10] is P. aeruginosa ATCC 47,085. Put plainly: Biofilm formation assay (crystal violet, light microscopy). Type of data set: cell-based, Pseudomonas aeruginosa. The note with it: sub-MIC, light microscopy image. The method, then:
as §3, §4

In the next data set the test system is HPDE. Put plainly: SRB cell viability assay, normal cells. The data set is classed as cell-based. As to the method: Firstly, to determine the cell viability, HPDE cell lines were treated with all new synthesized compounds 9a–k for 96 h using sulforhodamine B (SRB) assay. All newly synthesized compounds were proven non-toxic with IC50 more than […] (Table 2).
The pancreatic human cancer cell lines BxPC-3 and Panc-1, the human hepatocellular carcinoma (HepG-2), and the normal immortalized pancreatic cell line HPDE, that were used in this study, were obtained from the American Type Culture Collection (Rockville, USA). Cell lines were cultured and treated with the tested compounds or dimethyl sulfoxide (DMSO) as previously described. Cells were cultivated in DMEM medium (Invitrogen, Carlsbad, CA, USA), supplemented with streptomycin, penicillin and fetal bovine serum (FCS) (Invitrogen, Carlsbad, CA, USA).
The sulforhodamine B (SRB) assay was employed to assess the anti-proliferative effects of tested compounds on cancer cells. Cell lines were incubated and regularly treated with DMSO or increasing doses of tested compounds for 48 h. The cells were fixed with 10% trichloroacetic acid and stained with SRB fluorescent dye for 30 min. Then, the bounded SRB dye to cellular proteins was dissolved in 10 mM Tris base after washing excess dye with 1% acetic acid. The absorbance was measured at 510 nm in a reader (Biotek, Winooski, VT, USA).

[11] abbreviates: ATCC16404, read-out: Minimum inhibitory concentration (MIC).
The mark [12] stands for this setting: Homo sapiens, HepG2, HepG-2 cells, read-out: IC50.

≈ marks a conversion by molar mass, not a printed value. Where “and” joins values, the source holds several entries; their conditions need not be identical. Equal values may be shown once. Read-outs that look alike come from different tables or passages of the source.

As a reminder, the IC50 is the concentration that gives 50% inhibition. Usually melting point stands for the temperature, or range, at which the solid turns liquid. On to `Cc1ccc(S(=O)(=O)Nc2ccccc2C2=N/C(=C/c3ccc(Cl)cc3)C(=O)O2)cc1` [Compound 9e, (E)-N-(2-(4-(4-Chlorobenzylidene)-5-oxo-4,5-dihydrooxazol-2-yl)phenyl)-4-methylbenzenesulfonamide], for which the melting point fell in the range of 234 to 236 °C. Further, the MIC in [1] is 2 µg/mL (≈ 4.42 µM). In data set [2], the MIC came to 4 µg/mL (≈ 8.83 µM). Further, the MIC in data set [3] amounted to 2 µg/mL (≈ 4.42 µM). The MIC in data set [4] is 2 µg/mL (≈ 4.42 µM). Also, the MIC in data set [5] was found to be 2 µg/mL (≈ 4.42 µM). Besides, the MIC in data set [6] stood at 4 µg/mL (≈ 8.83 µM). Besides, in data set [7] (setting [11]), the MIC was 16 µg/mL (≈ 35.3 µM). Besides, in data set [8] (Candida albicans, ATCC10231, Candida albicans ATCC 10231, read-out: Minimum inhibitory concentration (MIC)), the MIC was 8 µg/mL (≈ 17.7 µM). In addition, the MIC in [9] was 8 µg/mL (≈ 17.7 µM). Besides, in the data set on Panc-1 (Homo sapiens, read-out: IC50), the IC50 was determined as 12.2 ± 1.29 µg/mL (≈ 26.8 µM). For the same compound, the IC50 with BxPC-3 (Homo sapiens, read-out: IC50) came to 13.3 ± 1.57 µg/mL (≈ 29.3 µM). Besides, the IC50 with HepG-2 (setting [12]) came out at 15 ± 2.89 µg/mL (≈ 33.2 µM). In addition, the “Biofilm formation, microscopic visualization” value in the data set with S. aureus ATCC 6538 is “markedly reduced”. For the same compound, the “Biofilm formation, microscopic visualization” value in data set [10] is on record as “markedly reduced”.
As to “(E)-4-Methyl-N-(2-(4-(naphthalen-1-ylmethylene)-5-oxo-4,5-dihydrooxazol-2-yl)phenyl)benzenesulfonamide [Compound 9h]”, the “Minimum inhibitory concentration (MIC)” value in data set [1] (37 °C), in data set [2], in [3] (37 °C), in data set [4] (37 °C), in [5] (37 °C) and in [6] (37 °C) was more than 32 µg/mL each time. In addition, the “Minimum inhibitory concentration (MIC)” value in data set [7] is 8 µg/mL and 4 µg/mL; in data set [8] (Candida albicans ATCC 10231) it was 4 µg/mL and 2 µg/mL; in [9] (37 °C), more than 32 µg/mL. Moreover, the IC50 with Panc-1 is 14.72 ± 2.87 µg/mL; in the data set on BxPC-3 it was 12.60 ± 0.62 µg/mL; in the data set with HepG-2 (HepG-2 cells) it was 17.34 ± 0.96 µg/mL; in the data set with HPDE (HPDE normal immortalized cell line, 96 h), more than 50000 µg/mL.
With `Cc1ccc(S(=O)(=O)Nc2ccccc2C2=N/C(=C/c3ccncc3)C(=O)O2)cc1` [Compound 9k, (E)-4-Methyl-N-(2-(5-oxo-4-(pyridin-4-ylmethylene)-4,5-dihydrooxazol-2-yl)phenyl)benzenesulfonamide], the melting point lay within 210 to 212 °C. The MIC in data set [1] is 4 µg/mL (≈ 9.54 µM). For the same compound, in data set [2], the MIC was more than 32 µg/mL. Also, in data set [3], the MIC was more than 32 µg/mL. Also, the MIC in data set [4] was 4 µg/mL (≈ 9.54 µM). For the same compound, in data set [5], the MIC is 2 µg/mL (≈ 4.77 µM). Moreover, the MIC in [6] is 16 µg/mL (≈ 38.1 µM). In data set [7] (ATCC16404, 20 h, read-out: Minimum inhibitory concentration (MIC)), the MIC was found to be 16 µg/mL (≈ 38.1 µM). Moreover, the MIC in [7] (setting [11]) is more than 32 µg/mL. Moreover, the MIC in data set [9] was more than 32 µg/mL. Further, the half-inhibitory concentration (IC50) in the data set on Panc-1 (Homo sapiens, read-out: IC50) came out at 19.9 ± 3.35 µg/mL (≈ 47.4 µM). The concentration for half-maximal inhibition (IC50) in the data set with BxPC-3 (Homo sapiens, read-out: IC50) stood at 7.27 ± 1.49 µg/mL (≈ 17.3 µM). Also, the half-inhibitory concentration (IC50) with HepG-2 (setting [12]) is 33.1 ± 5.12 µg/mL (≈ 78.9 µM). Also, in the data set on HPDE (normal HPDE cells, read-out: IC50), the IC50 was more than 50 µg/mL.
